Entries after “also recorded” stand apart in the source; their conditions may differ.
Legend:
LXRα [1] = target: T1, LXRα (Homo sapiens, UniProt Q13133); assay: FRET (HTRF) LXRα receptor control; format: binding; conditions: FIG. 5B bottom panel
T1 sequence (Q13133 1-447): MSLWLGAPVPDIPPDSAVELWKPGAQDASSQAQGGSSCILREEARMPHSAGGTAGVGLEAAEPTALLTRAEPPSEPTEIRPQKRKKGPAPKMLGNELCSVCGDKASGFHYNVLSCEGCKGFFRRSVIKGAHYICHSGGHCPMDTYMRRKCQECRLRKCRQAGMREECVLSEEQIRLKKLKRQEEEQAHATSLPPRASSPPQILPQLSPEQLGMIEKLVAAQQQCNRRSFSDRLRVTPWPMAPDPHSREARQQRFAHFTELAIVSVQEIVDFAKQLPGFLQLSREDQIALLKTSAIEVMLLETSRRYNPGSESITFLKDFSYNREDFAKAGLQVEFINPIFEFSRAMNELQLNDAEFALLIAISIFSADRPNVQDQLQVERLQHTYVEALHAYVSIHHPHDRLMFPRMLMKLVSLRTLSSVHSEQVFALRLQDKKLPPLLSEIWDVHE

LXRα [2] = target: T1, LXRα; assay: ELISA peptide sensor assay, LXRα control; format: binding; conditions: FIG. 5C bottom panel
From the text: A peptide sensor was used.

[3] = tested on: HNF4α, LXRα, RXRα and LXRβ ligand-binding domains fused to Gal4 DBD; assay: GAL4 DBD fusions with LBDs of other nuclear receptors, luciferase reporter in HepG2 cells; format: cell-based; conditions: 50 μM CDCA, FIG. 1A
FXR / cyp7a promoter = conditions: HepG2 cells
full-length FXR = target: T2, full-length FXR (Homo sapiens, UniProt Q96RI1); assay: pGL3 3X FXRE luciferase reporter with full-length FXR in HepG2 cells; format: cell-based; conditions: panel of bile acids, FIG. 4C
T2 construct: a plasmid expressing full-length FXR (PFXR); expressed in transfected cells; host or cells: HepG2
T2 sequence (Q96RI1 1-486): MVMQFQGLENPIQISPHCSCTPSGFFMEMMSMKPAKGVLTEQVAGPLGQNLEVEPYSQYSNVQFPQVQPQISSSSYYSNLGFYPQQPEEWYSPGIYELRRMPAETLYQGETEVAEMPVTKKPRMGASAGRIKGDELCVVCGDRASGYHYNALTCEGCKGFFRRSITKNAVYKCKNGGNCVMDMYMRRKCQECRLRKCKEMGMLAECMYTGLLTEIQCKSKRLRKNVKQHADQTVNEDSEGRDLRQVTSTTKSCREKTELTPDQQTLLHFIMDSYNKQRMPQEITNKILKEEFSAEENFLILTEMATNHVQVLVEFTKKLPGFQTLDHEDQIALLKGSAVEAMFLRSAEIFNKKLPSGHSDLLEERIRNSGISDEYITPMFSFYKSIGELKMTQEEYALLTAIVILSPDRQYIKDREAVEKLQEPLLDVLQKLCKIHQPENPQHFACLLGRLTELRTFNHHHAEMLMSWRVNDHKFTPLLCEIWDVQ
From the text: The ability of different bile acids and derivatives to activate FXR-mediated transactivation was also examined.

SMILES: C[C@H](CCC1OC1(C)C)[C@H]1CC[C@H]2[C@@H]3CC=C4C[C@@H](O)CC[C@]4(C)[C@H]3CC[C@]12C (stereo partly drawn) [24,25 epoxycholesterol]
- binding of LXRα receptor control by FRET (LXRα [1]): affected
- binding of sensor peptide to LXRα control (ELISA) (LXRα [2]): increased binding

SMILES: C[C@H](CCC(=O)O)[C@H]1CC[C@H]2[C@@H]3[C@H](O)C[C@@H]4C[C@H](O)CC[C@]4(C)[C@H]3CC[C@]12C [CDCA, chenodeoxycholic acid]
- activation of ligand binding domains of other nuclear receptors fused to GAL4 DBD [3]: not activated
- suppression of CYP7 expression by nuclear receptors in presence of CDCA (FXR / cyp7a promoter; 10 μM CDCA, FXR vs CPF, HNF4α, LXRα, RXRα, FIG. 2A): Only FXR suppressed CYP7 expression
- FXR-mediated suppression of CYP7 expression, rank among bile acids (FXR / cyp7a promoter; panel of bile acids, FIG. 4D): highest level of suppression; also recorded: largest repression

SMILES: CC(CCC(=O)NCC(=O)O)C1CCC2C3C(O)CC4CC(O)CCC4(C)C3CCC12C (stereo not drawn) [GCDCA, glycochenodeoxycholic acid]
- induction of luciferase reporter activity (FXR-mediated transactivation), rank among bile acids (full-length FXR): greatest induction

Source: patent US6465258B1, “FXR receptor-mediated modulation cholesterol metabolism” (Tularik, Inc., priority 1999, dated 2002)
